Laboratory results reported in ChEMBL document CHEMBL1201862, “PubChem BioAssay data set” (2004).
Activity calls are given as the source filed them.

Assays:
Major prion protein = Major prion protein (Homo sapiens, UniProt P04156); format: functional, cell-based
cells [1] = experiment: cells
Paired box protein Pax-8 = Paired box protein Pax-8 (Homo sapiens, UniProt Q06710); experiment: inhibitors of PAX8-driven TPO luciferase reporter, dose response, RMG-I cells, cherry-pick (AID 687027); format: functional, cell-based;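 further: luciferase reporter driven by Pax8 target thyroperoxidase promoter measured by SteadyGlo luminescence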
[2] = target: T1, Histone-lysine N-methyltransferase NSD2 (Homo sapiens, UniProt O96028); format: biochemical
T1 sequence (O96028 whole entry): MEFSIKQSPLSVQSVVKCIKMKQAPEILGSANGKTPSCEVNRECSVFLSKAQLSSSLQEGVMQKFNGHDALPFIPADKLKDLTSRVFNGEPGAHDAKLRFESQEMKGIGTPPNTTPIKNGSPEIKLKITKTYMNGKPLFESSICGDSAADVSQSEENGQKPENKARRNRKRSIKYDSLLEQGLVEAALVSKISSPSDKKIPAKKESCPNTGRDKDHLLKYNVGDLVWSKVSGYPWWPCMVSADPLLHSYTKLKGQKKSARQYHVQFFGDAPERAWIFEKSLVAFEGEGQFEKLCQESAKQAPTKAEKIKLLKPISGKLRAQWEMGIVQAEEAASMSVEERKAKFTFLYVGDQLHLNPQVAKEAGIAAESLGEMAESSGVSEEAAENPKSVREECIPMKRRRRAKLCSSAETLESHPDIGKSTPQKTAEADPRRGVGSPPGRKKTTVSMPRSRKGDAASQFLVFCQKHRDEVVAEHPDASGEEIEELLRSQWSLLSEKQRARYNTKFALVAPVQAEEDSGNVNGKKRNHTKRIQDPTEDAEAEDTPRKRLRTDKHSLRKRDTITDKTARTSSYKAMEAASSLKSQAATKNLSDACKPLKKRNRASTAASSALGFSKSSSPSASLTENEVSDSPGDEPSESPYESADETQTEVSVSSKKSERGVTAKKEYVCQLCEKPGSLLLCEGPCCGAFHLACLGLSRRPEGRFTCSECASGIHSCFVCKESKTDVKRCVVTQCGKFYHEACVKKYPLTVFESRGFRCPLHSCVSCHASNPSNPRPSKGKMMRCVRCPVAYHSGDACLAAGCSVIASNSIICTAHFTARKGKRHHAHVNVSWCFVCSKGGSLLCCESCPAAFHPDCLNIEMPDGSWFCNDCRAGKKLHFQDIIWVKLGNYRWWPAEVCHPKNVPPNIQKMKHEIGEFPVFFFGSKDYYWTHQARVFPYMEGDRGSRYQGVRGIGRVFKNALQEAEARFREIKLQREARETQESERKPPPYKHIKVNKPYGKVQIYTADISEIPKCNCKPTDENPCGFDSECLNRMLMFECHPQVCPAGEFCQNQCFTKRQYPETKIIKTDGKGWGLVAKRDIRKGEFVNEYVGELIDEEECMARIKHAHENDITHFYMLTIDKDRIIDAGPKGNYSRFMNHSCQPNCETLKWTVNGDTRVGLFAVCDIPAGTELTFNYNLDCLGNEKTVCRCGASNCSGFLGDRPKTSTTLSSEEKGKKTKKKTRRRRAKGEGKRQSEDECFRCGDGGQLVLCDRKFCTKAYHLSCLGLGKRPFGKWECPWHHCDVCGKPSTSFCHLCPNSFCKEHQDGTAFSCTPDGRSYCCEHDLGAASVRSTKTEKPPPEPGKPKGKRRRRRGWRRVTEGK

Hexokinase HKDC1 = target: T2, Hexokinase HKDC1 (Homo sapiens, UniProt Q2TB90); experiment: HKDC1 hexokinase inhibitors, dose response, biochemical, W721R variant (AID 504729); format: functional
T2 sequence (Q2TB90 whole entry): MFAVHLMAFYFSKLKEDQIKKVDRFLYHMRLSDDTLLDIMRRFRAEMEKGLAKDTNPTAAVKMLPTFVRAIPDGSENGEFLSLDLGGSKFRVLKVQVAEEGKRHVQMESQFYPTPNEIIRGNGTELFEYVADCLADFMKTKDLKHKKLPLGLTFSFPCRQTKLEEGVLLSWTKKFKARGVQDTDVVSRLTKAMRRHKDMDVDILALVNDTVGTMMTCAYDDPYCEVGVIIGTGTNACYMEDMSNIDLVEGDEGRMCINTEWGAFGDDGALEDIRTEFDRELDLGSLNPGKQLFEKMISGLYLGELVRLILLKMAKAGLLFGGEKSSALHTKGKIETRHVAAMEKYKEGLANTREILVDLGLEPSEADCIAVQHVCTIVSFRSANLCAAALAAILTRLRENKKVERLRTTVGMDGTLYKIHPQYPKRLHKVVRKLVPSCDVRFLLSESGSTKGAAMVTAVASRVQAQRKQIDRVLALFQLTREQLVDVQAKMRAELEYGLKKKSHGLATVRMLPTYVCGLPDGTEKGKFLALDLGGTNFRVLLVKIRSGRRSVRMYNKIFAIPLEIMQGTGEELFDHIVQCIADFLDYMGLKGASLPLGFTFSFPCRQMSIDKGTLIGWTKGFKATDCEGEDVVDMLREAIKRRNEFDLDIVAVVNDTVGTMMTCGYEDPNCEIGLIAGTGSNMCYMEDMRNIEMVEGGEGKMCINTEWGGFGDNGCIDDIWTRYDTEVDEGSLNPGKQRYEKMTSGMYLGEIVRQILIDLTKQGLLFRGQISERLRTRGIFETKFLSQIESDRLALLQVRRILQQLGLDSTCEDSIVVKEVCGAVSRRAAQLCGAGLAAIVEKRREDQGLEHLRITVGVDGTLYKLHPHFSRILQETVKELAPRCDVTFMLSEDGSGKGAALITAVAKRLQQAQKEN

[3] = target: Tyrosyl-DNA phosphodiesterase 2 (Homo sapiens, UniProt O95551); experiment: human TDP2 enzyme inhibitors, dose response, biochemical, epi absorbance, IC50 (AID 743297)
[4] = target: T3, Polyadenylate-binding protein 1 (Homo sapiens, UniProt P11940); experiment: PABP1 MLLE–PAM2 binding inhibitor potency, dose response, biochemical, fluorescence polarization, FITC-PAM2 peptide (AID 602259); format: functional; settings: read-out: IC50_Mean
[5] = non-specific cell cytotoxicity, dose response, cytotoxicity control for PAX8 inhibitor project, plate reader, dry powder samples (AID 743021); format: functional, cell-based
[6] = target: T3, Polyadenylate-binding protein 1; experiment: PABP1 MLLE–PAM2 interaction inhibitors, dose response, miRNA deadenylation inhibitor project, biochemical, fluorescence polarization, Cy5-PAM2 peptide, secondary (AID 602260); format: functional; settings: read-out: IC50_Mean
[7] = target: Photoreceptor-specific nuclear receptor (Homo sapiens, UniProt Q9Y5X4); format: functional, cell-based;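 further: CHO-S cells with Gal4-NCOR and VP16-NR2E3 two-hybrid luciferase reporter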
[8] = inhibitors of SNCA 5'UTR-driven reporter translation, confirmation, H4 neuroglioma cells, luminescence (AID 1988); format: functional, cell-based
[9] = inhibitors of firefly luciferase expression or activity, dose response, H4 neuroglioma cells, luminescence (AID 1990); format: functional, cell-based
[10] = Luminescence Cell-Based Dose Response HTS to Identify Inhibitors of 5'UTR Stem-Loop Driven Prion Protein mRNA Translation in H4 Neuroglioblastoma Cells. [Related pubchem assays: 1827 (Project Summary), 1813 (Primary HTS)]; format: functional
cells [11] = experiment: cells; remark: listed apart in the source

Question: With `CCCc1nc(SCC(=O)NNC(=O)c2ccc(OC)cc2)c2ccccc2n1` as the compound, how does the IC50 (Major prion protein) read?
Answer: 1.52 µM (active)

Question: What about the IC50 (cells [1]) of the same compound?
Answer: > 138 µM (inactive)

Question: Which AC50 (Paired box protein Pax-8) does the source give for `NC1=C(Br)C(=O)c2ncccc2C1=O` here?
Answer: 1.22 µM (active)

Question: And the AC50 [2]?
Answer: 0.164 µM (active)

Question: And the IC50 (Hexokinase HKDC1)?
Answer: 8.91 µM (active)

Question: What about the IC50 [3] of the same compound?
Answer: 2.66 µM (active)

Question: What about the IC50 [4] of the same compound?
Answer: > 66 µM (inactive)

Question: And the AC50 [5]?
Answer: 10.1 µM (active)

Question: And the IC50 [6]?
Answer: > 66 µM (inactive)

Question: And the IC50 [7]?
Answer: 2.48 µM (active)

Question: What does the source list for `CCOc1ccccc1/N=c1\oc2cc(O)ccc2cc1C(=O)NCC1CCCO1` (centres undefined)?
Answer: EC50 [8]: > 120 µM (not active); EC50 [9]: > 120 µM (not active); EC50 [10]: > 120 µM (not active); AC50 (cells [11]): > 70 µM (inactive)
